{
  "source": "patent US20250170114A1",
  "about": "“METHODS OF TREATMENT USING T-TYPE CALCIUM CHANNEL MODULATORS” (Praxis Precision Medicines, Inc., priority 2022, published 2025)",
  "tested_on": "participants with ET",
  "assay": "Phase 2 trial: treatment-emergent adverse events (TEAEs)",
  "format": "in vivo",
  "conditions": "for SOC Nervous System Disorders / SOC Psychiatric Disorders / SOC Vascular Disorders / Any TEAE / PT Cognitive disorder / PT Constipation / PT Dizziness / PT Fatigue / PT Insomnia / SOC Gastrointestinal Disorders / SOC General Disorders and Administration Site Conditions / SOC Musculoskeletal and Connective Tissue Disorders: Part B",
  "from_the_text": "Part A of the clinical trial was open-label and assessed the safety and tolerability of the study drug, as well as the overall magnitude and pattern of change in ET severity.\nPart B of the clinical trial consisted of both an open-label titration phase and a randomized, double-blind, placebo-controlled withdrawal phase. Part B assessed the safety and tolerability of the study drug, as well as the overall magnitude and pattern of change in ET severity and the duration of that effect. […] In the randomized, double-blind, placebo-controlled withdrawal phase, participants were either maintained on their final open-label dose or switched to placebo for an additional 14 days (Days 43 to 56).\nKey safety measures included clinical laboratory evaluations, 12-lead ECG, C-SSRS, and vital signs. Key efficacy assessments included the TETRAS Performance subscale, TETRAS Upper Limb using accelerometry, CGI, and PGI-C. Blood samples were obtained for the determination of study drug plasma concentrations using a validated bioanalytical method and may also be used for method development and/or metabolite characterization.\nOn Day 1, participants received a 20 mg dose of study drug on an empty stomach (at least 1 hour before breakfast). Participants remained in a clinical setting under medical observation for approximately 6 hours. TETRAS Performance assessments were performed before dosing and 6 hours (±2) post-dose. For dosing on Day 2 through Day 41, participants were instructed to dose QAM at least 1 hour before breakfast at home. Participants continued taking study drug 20 mg QAM at home through Day 3. […] On Day 4, participants escalated to 40 mg QAM through Day 7, when they returned to the clinic for safety assessments and efficacy testing. On Day 8, participants escalated to 60 mg QAM through Day 14. […] On Day 15, participants escalated to 80 mg QAM through Day 21, when they returned to the clinic for safety assessments and efficacy testing. On Day 22, participants escalated to 100 mg QAM through Day 28. […] On Day 29, participants escalated to 120 mg QAM through Day 42, when they returned to the clinic for safety assessments and efficacy testing. The dose on Day 42 was taken in the clinic. On Day 35, participants received a telephone call from site staff to inquire about AEs and concomitant medications. On Day 41, participants completed a TETRAS Performance Upper Limb assessment via a telehealth visit. […] Participants could only change to a lower dose level once, and no dose changes were allowed to occur after Day 36.\nIn both phases, key safety measures included clinical laboratory evaluations, 12-lead ECG, C-SSRS, and vital signs. Key efficacy assessments included the TETRAS Performance subscale, TETRAS Upper Limb using accelerometry, CGI, PGI-C, TETRAS ADL Subscale, QUEST, BDI-II, and BAI. Blood samples were obtained for the determination of study drug and metabolite plasma concentrations.",
  "key": {"[1]": {"conditions": "open-label titration phase of Part B"}, "[2]": {"conditions": "randomized-withdrawal phase of Part B, participants receiving study drug"}},
  "data": [
    {"compound": "CC(C)(C)NC(=O)CN1CCC(CNC(=O)c2cc(F)cc(Cl)c2)CC1.Cl", "note": "[Study drug]", "values": [
      {"measurement": "SOC Nervous System Disorders", "setting": "40 mg, N = 15", "value": "4 n (%)"},
      {"measurement": "SOC Psychiatric Disorders", "setting": "40 mg, N = 15", "value": "2 n (%)"},
      {"measurement": "SOC Vascular Disorders", "setting": "40 mg, N = 15", "value": "0 n (%)"},
      {"measurement": "Any TEAE", "setting": "60 mg, N = 12", "value": "8 n (%)"},
      {"measurement": "PT Cognitive disorder", "setting": "60 mg, N = 12", "value": "1 n (%)"},
      {"measurement": "PT Constipation", "setting": "60 mg, N = 12", "value": "0 n (%)"},
      {"measurement": "PT Dizziness", "setting": "60 mg, N = 12", "value": "2 n (%)"},
      {"measurement": "PT Fatigue", "setting": "60 mg, N = 12", "value": "2 n (%)"},
      {"measurement": "PT Insomnia", "setting": "60 mg, N = 12", "value": "0 n (%)"},
      {"measurement": "SOC Gastrointestinal Disorders", "setting": "60 mg, N = 12", "value": "0 n (%)"},
      {"measurement": "SOC General Disorders and Administration Site Conditions", "setting": "60 mg, N = 12", "value": "3 n (%)"},
      {"measurement": "SOC Musculoskeletal and Connective Tissue Disorders", "setting": "60 mg, N = 12", "value": "2 n (%)"},
      {"measurement": "SOC Nervous System Disorders", "setting": "60 mg, N = 12", "value": "8 n (%)"},
      {"measurement": "SOC Psychiatric Disorders", "setting": "60 mg, N = 12", "value": "1 n (%)"},
      {"measurement": "SOC Vascular Disorders", "setting": "60 mg, N = 12", "value": "2 n (%)"},
      {"measurement": "Any TEAE", "setting": "80 mg, N = 10", "value": "4 (40.0) n (%)"},
      {"measurement": "PT Cognitive disorder", "setting": "80 mg, N = 10", "value": "0 n (%)"},
      {"measurement": "PT Constipation", "setting": "80 mg, N = 10", "value": "1 (10.0) n (%)"},
      {"measurement": "PT Dizziness", "setting": "80 mg, N = 10", "value": "0 n (%)"},
      {"measurement": "PT Fatigue", "setting": "80 mg, N = 10", "value": "0 n (%)"},
      {"measurement": "PT Insomnia", "setting": "80 mg, N = 10", "value": "0 n (%)"},
      {"measurement": "SOC Gastrointestinal Disorders", "setting": "80 mg, N = 10", "value": "2 (20.0) n (%)"},
      {"measurement": "SOC General Disorders and Administration Site Conditions", "setting": "80 mg, N = 10", "value": "0 n (%)"},
      {"measurement": "SOC Musculoskeletal and Connective Tissue Disorders", "setting": "80 mg, N = 10", "value": "0 n (%)"},
      {"measurement": "SOC Nervous System Disorders", "setting": "80 mg, N = 10", "value": "2 (20.0) n (%)"},
      {"measurement": "SOC Psychiatric Disorders", "setting": "80 mg, N = 10", "value": "0 n (%)"},
      {"measurement": "SOC Vascular Disorders", "setting": "80 mg, N = 10", "value": "0 n (%)"},
      {"measurement": "Any TEAE", "setting": "100 mg, N = 9", "value": "1 (11.1) n (%)"},
      {"measurement": "PT Cognitive disorder", "setting": "100 mg, N = 9", "value": "0 n (%)"},
      {"measurement": "PT Constipation", "setting": "100 mg, N = 9", "value": "1 (11.1) n (%)"},
      {"measurement": "PT Dizziness", "setting": "100 mg, N = 9", "value": "0 n (%)"},
      {"measurement": "PT Fatigue", "setting": "100 mg, N = 9", "value": "0 n (%)"},
      {"measurement": "PT Insomnia", "setting": "100 mg, N = 9", "value": "0 n (%)"},
      {"measurement": "SOC Gastrointestinal Disorders", "setting": "100 mg, N = 9", "value": "1 (11.1) n (%)"},
      {"measurement": "SOC General Disorders and Administration Site Conditions", "setting": "100 mg, N = 9", "value": "0 n (%)"},
      {"measurement": "SOC Musculoskeletal and Connective Tissue Disorders", "setting": "100 mg, N = 9", "value": "0 n (%)"},
      {"measurement": "SOC Nervous System Disorders", "setting": "100 mg, N = 9", "value": "0 n (%)"},
      {"measurement": "SOC Psychiatric Disorders", "setting": "100 mg, N = 9", "value": "0 n (%)"},
      {"measurement": "SOC Vascular Disorders", "setting": "100 mg, N = 9", "value": "0 n (%)"},
      {"measurement": "Any TEAE", "setting": "120 mg, N = 9", "value": "3 (33.3) n (%)"},
      {"measurement": "PT Cognitive disorder", "setting": "120 mg, N = 9", "value": "0 n (%)"},
      {"measurement": "PT Constipation", "setting": "120 mg, N = 9", "value": "1 (11.1) n (%)"},
      {"measurement": "PT Dizziness", "setting": "120 mg, N = 9", "value": "0 n (%)"},
      {"measurement": "PT Fatigue", "setting": "120 mg, N = 9", "value": "0 n (%)"},
      {"measurement": "PT Insomnia", "setting": "120 mg, N = 9", "value": "0 n (%)"},
      {"measurement": "SOC Gastrointestinal Disorders", "setting": "120 mg, N = 9", "value": "1 (11.1) n (%)"},
      {"measurement": "SOC General Disorders and Administration Site Conditions", "setting": "120 mg, N = 9", "value": "0 n (%)"},
      {"measurement": "SOC Musculoskeletal and Connective Tissue Disorders", "setting": "120 mg, N = 9", "value": "0 n (%)"},
      {"measurement": "SOC Nervous System Disorders", "setting": "120 mg, N = 9", "value": "1 (11.1) n (%)"},
      {"measurement": "SOC Psychiatric Disorders", "setting": "120 mg, N = 9", "value": "1 (11.1) n (%)"},
      {"measurement": "SOC Vascular Disorders", "setting": "120 mg, N = 9", "value": "0 n (%)"},
      {"measurement": "Any TEAE", "setting": "Overall, N = 17", "value": "15 n (%)"},
      {"measurement": "PT Cognitive disorder", "setting": "Overall, N = 17", "value": "4 n (%)"},
      {"measurement": "PT Constipation", "setting": "Overall, N = 17", "value": "6 n (%)"},
      {"measurement": "PT Dizziness", "setting": "Overall, N = 17", "value": "6 n (%)"},
      {"measurement": "PT Fatigue", "setting": "Overall, N = 17", "value": "3 n (%)"},
      {"measurement": "PT Insomnia", "setting": "Overall, N = 17", "value": "3 n (%)"},
      {"measurement": "SOC Gastrointestinal Disorders", "setting": "Overall, N = 17", "value": "8 n (%)"},
      {"measurement": "SOC General Disorders and Administration Site Conditions", "setting": "Overall, N = 17", "value": "5 n (%)"},
      {"measurement": "SOC Musculoskeletal and Connective Tissue Disorders", "setting": "Overall, N = 17", "value": "3 n (%)"},
      {"measurement": "SOC Nervous System Disorders", "setting": "Overall, N = 17", "value": "12 n (%)"},
      {"measurement": "SOC Psychiatric Disorders", "setting": "Overall, N = 17", "value": "4 n (%)"},
      {"measurement": "SOC Vascular Disorders", "setting": "Overall, N = 17", "value": "2 n (%)"},
      {"measurement": "severity of treatment emergent adverse events (TEAEs)", "setting": "Phase 2 trial overall", "value": "mild to moderate"},
      {"measurement": "discontinuation of participants during the titration period", "setting": "accelerated titration regimen", "value": "a third"},
      {"measurement": "overall safety and tolerability", "setting": "doses up to 120 mg", "value": "generally safe and well tolerated"},
      {"measurement": "Drug-related TEAE cognitive disorder", "setting": "[1]", "value": 4, "unit": "participants"},
      {"measurement": "Drug-related TEAE dizziness", "setting": "[1]", "value": 6, "unit": "participants"},
      {"measurement": "Drug-related TEAE paraesthesia", "setting": "[1]", "value": 2, "unit": "participants"},
      {"measurement": "participants experiencing TEAEs considered related to study drug", "setting": "[1]", "value": 70.6, "unit": "%"},
      {"measurement": "participants who experienced at least 1 TEAE", "setting": "[1]", "value": 88.2, "unit": "%"},
      {"measurement": "serious adverse event (SAE) experienced", "setting": "open-label titration phase of Part B, considered unrelated to study drug", "value": "One mild SAE of cyst"},
      {"measurement": "participants who experienced TEAEs", "setting": "randomized withdrawal phase of Part B, study drug group", "value": 16.7, "unit": "%"},
      {"measurement": "ongoing AE constipation that had emerged during open-label titration", "setting": "[2]", "value": 3, "unit": "participants"},
      {"measurement": "ongoing AE photosensitivity/photophobia that had emerged during open-label titration", "setting": "[2]", "value": 2, "unit": "participants"}
    ]}
  ]
}
